Reference: patent publication US20250296959A1, “B7-H3 TARGETING PEPTIDES AND CONSTRUCTS THEREOF” (Mariana Oncology Inc., priority 2024, published 2025)
Read-outs that look alike come from different tables or passages of the source. Starred links: 1 amine or outer side, 2 acyl side, 3 side chain; linkers in the order of their positions; H or OH if unused. Positions of bridges follow the written chain, without caps; N, C: chain ends. Non-standard residues stand in square brackets, D forms with d. Residues, ends and D or L forms follow the SMILES beside them. Groups on a side chain read outwards from the residue. *: point of attachment. X2 = O=C(O)CN1CCN(CC(=O)O)CCN(CC(=O)NCCOCCOCCOCCOCC(=O)*)CCN(CC(=O)O)CC1; Ala(piperidin-4-yl) = O=C([C@H](CC1CCN([*:3])CC1)N[*:1])[*:2]; DOTA = O=C(O)CN1CCN(CC(=O)O)CCN(CC(=O)*)CCN(CC(=O)O)CC1; Phe(4-COOH) = N[C@@H](Cc1ccc(C(=O)O)cc1)C(=O)O; Trp(5-F) = N[C@@H](Cc1c[nH]c2ccc(F)cc12)C(=O)O; X1 = C[C@@H](c1ccccc1)[C@H](N[*:1])C(=O)[*:2]; PEG8 = NCCOCCOCCOCCOCCOCCOCCOCCOCCC(=O)O; 1Nal = N[C@@H](Cc1cccc2ccccc12)C(=O)O; Ala(4-THP) = N[C@@H](CC1CCOCC1)C(=O)O; Val(3-OH) = CC(C)(O)[C@H](N)C(=O)O; aThr = C[C@H](O)[C@H](N)C(=O)O; PEG4 = NCCOCCOCCOCCOCCC(=O)O; Tle = CC(C)(C)[C@H](N)C(=O)O; hLeu = CC(C)CC[C@H](N)C(=O)O

What was measured:
[1] = tested on: Calu-6 cell line; assay: Net internalization of [177Lu]Lu-labeled peptide in Calu-6 cells; format: cell-based, Human; conditions: 1 hour, 37° C., glycine pH 2.5 acid wash
Method in brief: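 Peptide conjugate labeled with [177Lu]LuCl3 at pH ~5, 80 °C, 17–20 min, and purity checked by RP-HPLC. B7-H3-expressing human Calu-6 lung cancer cells at 5 million cells/mL in 1% PBSA. Internalized fraction: counts left after two 3 min 50 mM glycine pH 2.5 washes and NaOH lysis, gamma counted against bound fraction.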

[2] = target: T1, human 4lg B7-H3 (Homo sapiens, UniProt Q5ZPR3); assay: Affinity determination by surface plasmon resonance (SPR) to 4Ig B7-H3; conditions: 4Ig B7-H3
T1 sequence (Q5ZPR3 29-534): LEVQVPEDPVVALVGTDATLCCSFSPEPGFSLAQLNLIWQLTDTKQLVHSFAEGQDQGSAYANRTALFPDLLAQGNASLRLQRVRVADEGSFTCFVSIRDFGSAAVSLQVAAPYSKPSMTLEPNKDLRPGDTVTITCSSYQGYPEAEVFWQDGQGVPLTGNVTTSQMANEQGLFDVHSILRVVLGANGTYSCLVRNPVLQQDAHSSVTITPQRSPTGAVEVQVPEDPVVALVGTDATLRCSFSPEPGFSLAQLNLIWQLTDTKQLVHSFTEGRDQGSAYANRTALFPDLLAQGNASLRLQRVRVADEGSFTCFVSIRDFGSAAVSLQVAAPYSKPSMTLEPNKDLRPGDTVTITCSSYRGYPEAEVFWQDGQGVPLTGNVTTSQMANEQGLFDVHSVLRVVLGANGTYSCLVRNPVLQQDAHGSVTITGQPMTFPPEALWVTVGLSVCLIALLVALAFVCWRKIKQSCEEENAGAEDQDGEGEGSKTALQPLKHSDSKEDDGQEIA

[3] = tested on: Calu-6 cell line; assay: Cell associated (bound) fraction of [177Lu]Lu-labeled peptide in Calu-6 cells; format: cell-based, Human; conditions: 1 hour, 37° C.
Method in brief: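 Peptide conjugate was labelled with [177Lu]LuCl3 in ammonium acetate pH ~5 at 80 °C for 17-20 min, with purity checked by RP-HPLC. Calu-6 suspensions (5 million cells/mL in 1% PBSA) were incubated with 0.8 μCi for 1 h at 37 °C. Cell pellets were gamma-counted after two cold PBS/BSA washes, giving the bound fraction against the unbound supernatant plus washes.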

[4] = read-out: SPR KD—37° C., 37° C. flow cell temperature
[5] = read-out: SPR KD—25° C., 25° C. flow cell temperature
[6] = SPR KD—25° C., 25° C. flow cell temperature
[7] = SPR KD—37° C., 37° C. flow cell temperature

## CC(=O)N[C@@H](CCC(C)C)C(=O)N[C@@H](Cc1ccc(O)cc1)C(=O)N[C@H]1CSSC[C@@H](C(=O)N[C@@H](Cc2c[nH]c3ccc(F)cc23)C(=O)N[C@H](C(=O)N[C@H](C(=O)N[C@H](CCCCNC(=O)[C@@H](CCC(=O)O)NC(=O)CN2CCN(CC(=O)O)CCN(CC(=O)O)CCN(CC(=O)O)CC2)C(=O)O)C(C)(C)O)[C@@H](C)c2ccccc2)NC(=O)[C@H](Cc2ccc(O)cc2)NC(=O)[C@H](C(C)C)NC(=O)[C@H](CC(=O)O)NC(=O)[C@H](CC2CCOCC2)NC(=O)[C@H](CC2CCNCC2)NC(=O)CNC(=O)[C@H](C(C)(C)C)NC1=O [compound 501, Ac-hLeu-Y-C-Tbg-G-PipAla-ThpA-D-V-Y-C-5FW-[(2S, 3S)beta-Me-Phe]-hydroxyVal-dLys(dGlu-DOTA)-COOH] (Ac-[hLeu]YC[Tle]G[Ala(piperidin-4-yl)][Ala(4-THP)]DVYC[Trp(5-F)][X1][Val(3-OH)][dK]([dE-DOTA])-OH; disulfide 3-11)
[1]
  % net internalization: B (25<%≤50)
[2]; [4]
  Kd: < 1 nM
[3]
  % cell associated fraction: C (%>50)

## CC(=O)N[C@@H](CCC(C)C)C(=O)N[C@@H](Cc1ccc(O)cc1)C(=O)N[C@H]1CSSC[C@@H](C(=O)N[C@@H](Cc2c[nH]c3ccc(F)cc23)C(=O)N[C@@H](Cc2ccccc2)C(=O)N[C@H](C(=O)N[C@H](CCCCNC(=O)CN2CCN(CC(=O)O)CCN(CC(=O)O)CCN(CC(=O)O)CC2)C(N)=O)[C@H](C)O)NC(=O)[C@H](Cc2ccc(O)cc2)NC(=O)[C@H](C(C)C)NC(=O)[C@H](CC(=O)O)NC(=O)[C@H](Cc2ccc(O)cc2)NC(=O)[C@H](CCCCN)NC(=O)CNC(=O)[C@H](C(C)C)NC1=O [compound 162, Ac-hLeu-Y-C-V-G-K-Y-D-V-Y-C-5FW-F-alloThr-dLys(DOTA)-CONH2] (Ac-[hLeu]YCVGKYDVYC[Trp(5-F)]F[aThr][dK](DOTA)-NH2; disulfide 3-11)
[1]
  % net internalization: A (%≤25)
[2]; [5]
  Kd: < 1 nM
[3]
  % cell associated fraction: B (25<%≤50)

## CC(=O)N[C@@H](CCC(C)C)C(=O)N[C@@H](Cc1ccc(O)cc1)C(=O)N[C@H]1CSSC[C@@H](C(=O)N[C@@H](Cc2c[nH]c3ccc(F)cc23)C(=O)N[C@@H](Cc2ccccc2)C(=O)N[C@H](C(=O)N[C@H](CCCCNC(=O)COCCOCCOCCOCCNC(=O)CN2CCN(CC(=O)O)CCN(CC(=O)O)CCN(CC(=O)O)CC2)C(=O)O)C(C)(C)O)NC(=O)[C@H](Cc2ccc(O)cc2)NC(=O)[C@H](C(C)C)NC(=O)[C@H](CC(=O)O)NC(=O)[C@H](CC2CCOCC2)NC(=O)[C@H](CCCCN)NC(=O)CNC(=O)[C@H](C(C)(C)C)NC1=O [compound 310, Ac-hLeu-Y-C-Tbg-G-K-ThpA-D-V-Y-C-5FW-F-hydroxyVal-dLys(PEG4-DOTA)-COOH] (Ac-[hLeu]YC[Tle]GK[Ala(4-THP)]DVYC[Trp(5-F)]F[Val(3-OH)][dK](X2)-OH; disulfide 3-11)
[1]
  % net internalization: B (25<%≤50)
[2]; [6]
  Kd: < 1 nM
[2]; [7]
  Kd: < 1 nM
[3]
  % cell associated fraction: C (%>50)

## CC(=O)N[C@@H](CCC(C)C)C(=O)N[C@@H](Cc1ccc(O)cc1)C(=O)N[C@H]1CSSC[C@@H](C(=O)N[C@@H](Cc2c[nH]c3ccc(F)cc23)C(=O)N[C@@H](Cc2ccccc2)C(=O)N[C@H](C(=O)N[C@H](CCC(=O)O)C(N)=O)C(C)(C)O)NC(=O)[C@H](Cc2ccc(O)cc2)NC(=O)[C@H](C(C)C)NC(=O)[C@H](CC(=O)O)NC(=O)[C@H](CC2CCN(C(=O)CCOCCOCCOCCOCCNC(=O)CN3CCN(CC(=O)O)CCN(CC(=O)O)CCN(CC(=O)O)CC3)CC2)NC(=O)[C@H](CC2CCNCC2)NC(=O)CNC(=O)[C@H](C(C)(C)C)NC1=O [compound 444, Ac-hLeu-Y-C-Tbg-G-PipAla-Pip(PEG4-DOTA)Ala-D-V-Y-C-5FW-F-hydroxyVal-dGlu-CONH2] (Ac-[hLeu]YC[Tle]G[Ala(piperidin-4-yl)][Ala(piperidin-4-yl)]([PEG4-DOTA])DVYC[Trp(5-F)]F[Val(3-OH)][dE]-NH2; disulfide 3-11)
[1]
  % net internalization: A (%≤25)
[2]; [4]
  Kd: < 1 nM
[3]
  % cell associated fraction: B (25<%≤50)

## CC(C)CC[C@H](NC(=O)CCOCCOCCOCCOCCOCCOCCOCCOCCNC(=O)CN1CCN(CC(=O)O)CCN(CC(=O)O)CCN(CC(=O)O)CC1)C(=O)N[C@@H](Cc1ccc(O)cc1)C(=O)N[C@H]1CSSC[C@@H](C(=O)N[C@@H](Cc2c[nH]c3ccc(F)cc23)C(=O)N[C@@H](Cc2ccccc2)C(=O)N2CCC[C@H]2C(N)=O)NC(=O)[C@H](Cc2ccc(O)cc2)NC(=O)[C@H](C(C)C)NC(=O)[C@H](CC(=O)O)NC(=O)[C@H](Cc2ccc(C(=O)O)cc2)NC(=O)[C@H](CCCCN)NC(=O)CNC(=O)[C@H](C(C)C)NC1=O [compound 294, DOTA-PEG8-hLeu-Y-C-V-G-K-4COOHPhe-D-V-Y-C-5FW-F-Pro-CONH2] ({DOTA-PEG8}-[hLeu]YCVGK[Phe(4-COOH)]DVYC[Trp(5-F)]FP-NH2; disulfide 3-11)
[1]
  % net internalization: A (%≤25)
[2]; [6]
  Kd: 1 to 10 nM
[3]
  % cell associated fraction: A (%≤25)

## CC(=O)N[C@@H](CCC(C)C)C(=O)N[C@@H](Cc1ccc(O)cc1)C(=O)N[C@H]1CSSC[C@@H](C(=O)N[C@@H](Cc2cccc3ccccc23)C(=O)N[C@@H](Cc2ccccc2)C(=O)N2CCC[C@H]2C(=O)N[C@H](CCCCNC(=O)COCCOCCOCCOCCNC(=O)CN2CCN(CC(=O)O)CCN(CC(=O)O)CCN(CC(=O)O)CC2)C(N)=O)NC(=O)[C@H](Cc2ccc(O)cc2)NC(=O)[C@H](C(C)C)NC(=O)[C@H](CC(=O)O)NC(=O)[C@H](CC2CCOCC2)NC(=O)[C@H](CCCCN)NC(=O)CNC(=O)[C@H](C(C)(C)C)NC1=O [compound 259, Ac-hLeu-Y-C-Tbg-G-K-ThpA-D-V-Y-C-1Nal-F-Pro-dLys(PEG4-DOTA)-CONH2] (Ac-[hLeu]YC[Tle]GK[Ala(4-THP)]DVYC[1Nal]FP[dK](X2)-NH2; disulfide 3-11)
[1]
  % net internalization: A (%≤25)
[2]; [6]
  Kd: < 1 nM
[2]; [7]
  Kd: 1 to 10 nM
[3]
  % cell associated fraction: B (25<%≤50)

## CC(=O)N[C@@H](CCC(C)C)C(=O)N[C@@H](Cc1ccc(O)cc1)C(=O)N[C@H]1CSSC[C@@H](C(=O)N[C@@H](Cc2c[nH]c3ccc(F)cc23)C(=O)N[C@@H](Cc2ccccc2)C(=O)N2CCC[C@H]2C(=O)N[C@H](CCCCNC(=O)CN2CCN(CC(=O)O)CCN(CC(=O)O)CCN(CC(=O)O)CC2)C(N)=O)NC(=O)[C@H](Cc2ccc(O)cc2)NC(=O)[C@H](C(C)C)NC(=O)[C@H](CC(=O)O)NC(=O)[C@H](Cc2ccc(C(=O)O)cc2)NC(=O)[C@H](CC2CCNCC2)NC(=O)CNC(=O)[C@H](C(C)C)NC1=O [compound 286, Ac-hLeu-Y-C-V-G-PipAla-4COOHPhe-D-V-Y-C-5FW-F-Pro-dLys(DOTA)-CONH2] (Ac-[hLeu]YCVG[Ala(piperidin-4-yl)][Phe(4-COOH)]DVYC[Trp(5-F)]FP[dK](DOTA)-NH2; disulfide 3-11)
[1]
  % net internalization: A (%≤25)
[2]; [5]
  Kd: < 1 nM
[2]; [4]
  Kd: 1 to 10 nM
[3]
  % cell associated fraction: C (%>50)

## CC(=O)N[C@@H](CCC(C)C)C(=O)N[C@@H](Cc1ccc(O)cc1)C(=O)N[C@H]1CSSC[C@@H](C(=O)N[C@@H](Cc2c[nH]c3ccc(F)cc23)C(=O)N[C@@H](Cc2ccccc2)C(=O)N[C@H](C(N)=O)C(C)(C)O)NC(=O)[C@H](Cc2ccc(O)cc2)NC(=O)[C@H](C(C)C)NC(=O)[C@H](CC(=O)O)NC(=O)[C@H](CC2CCN(C(=O)CCOCCOCCOCCOCCNC(=O)CN3CCN(CC(=O)O)CCN(CC(=O)O)CCN(CC(=O)O)CC3)CC2)NC(=O)[C@H](CCCCN)NC(=O)CNC(=O)[C@H](C(C)(C)C)NC1=O [compound 383, Ac-hLeu-Y-C-Tbg-G-K-Pip(PEG4-DOTA)Ala-D-V-Y-C-5FW-F-hydroxyVal-CONH2] (Ac-[hLeu]YC[Tle]GK[Ala(piperidin-4-yl)]([PEG4-DOTA])DVYC[Trp(5-F)]F[Val(3-OH)]-NH2; disulfide 3-11)
[1]
  % net internalization: B (25<%≤50)
[2]; [4]
  Kd: < 1 nM
[3]
  % cell associated fraction: B (25<%≤50)
